From ChEMBL document CHEMBL1201862, “PubChem BioAssay data set” (2004)
Active and inactive are the calls of the source.

Assays:
HeLa = assay: HeLa cell cytotoxicity, dose response, cytotoxicity control, 24 h, cherry-picked samples (AID 504726); assay type: functional, cell-based; conditions: Homo sapiens;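 note: potency for cytotoxicity as loss of luminescence signal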
[1] = NIH-3T3 fibroblast cytotoxicity, dose response, cytotoxicity control, cell-based, fluorescence, Alamar Blue, secondary assay (AID 2327); assay type: functional;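 note: NIH-3T3 mouse fibroblasts cultured with fluconazole at 8 µg/mL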
Genome polyprotein = Genome polyprotein (dengue virus type 2, UniProt P29990); assay: Dengue-2 NS5 methyltransferase inhibitors, primary screen, biochemical, confirmation dose response (AID 588689); assay type: functional
[2] = C. albicans growth with fluconazole, confirmation, fluorescence, retest (AID 2467); assay type: functional, cell-based
HEK293 = assay: HEK cell cytotoxicity by LDH release, dose response, cytotoxicity control for IDE activator project, fluorescence, HEK cells (AID 588440); assay type: functional, cell-based; conditions: Homo sapiens;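 note: cytotoxicity by LDH release measuring loss of membrane integrity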
Caspase-3 = target: T1, Caspase-3 (Homo sapiens, UniProt P42574); assay type: functional;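 note: Dose-response selectivity test against caspase-3 for candidate inhibitors of sentrin-specific proteases (SENPs)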
T1 sequence (P42574 whole entry): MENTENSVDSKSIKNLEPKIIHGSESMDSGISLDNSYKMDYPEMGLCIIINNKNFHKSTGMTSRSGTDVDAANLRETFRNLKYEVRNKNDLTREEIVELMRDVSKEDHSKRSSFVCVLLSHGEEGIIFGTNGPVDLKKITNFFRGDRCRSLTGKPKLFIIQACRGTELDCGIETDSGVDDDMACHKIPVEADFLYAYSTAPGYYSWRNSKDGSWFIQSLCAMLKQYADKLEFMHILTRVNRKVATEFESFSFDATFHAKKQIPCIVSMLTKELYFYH

LIM domain kinase 1 = LIM domain kinase 1 (Homo sapiens, UniProt P53667); assay: Navigating the Kinome. Panel member name: LIMK1; assay type: functional
[3] = target: Vascular endothelial growth factor receptor 2 (Homo sapiens, UniProt P35968); assay type: functional
[4] = target: Casein kinase I isoform alpha (Homo sapiens, UniProt P48729); assay type: functional
[5] = target: Cyclin-dependent kinase 7 (Homo sapiens, UniProt P50613); assay type: functional;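 note: value comes from a kinome-wide kinase profiling panel in which CDK7 is one member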
[6] = target: Serine/threonine-protein kinase TBK1 (Homo sapiens, UniProt Q9UHD2); assay: Navigating the Kinome. Panel member name: TBK1; assay type: functional
[7] = target: Cyclin-dependent kinase 8 (Homo sapiens, UniProt P49336); assay: Navigating the Kinome. Panel member name: CDK8; assay type: functional
[8] = target: Vascular endothelial growth factor receptor 1 (Homo sapiens, UniProt P17948); assay type: functional;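 note: measured within a kinome-wide profiling panel, FLT1 as the panel member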
[9] = target: Serine/threonine-protein kinase PAK 4 (Homo sapiens, UniProt O96013); assay type: functional;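 note: value obtained within a kinome profiling panel in which PAK4 was one of the panel members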
Aurora kinase A = Aurora kinase A (Homo sapiens, UniProt O14965); assay type: functional;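 note: value from the Navigating the Kinome kinase panel profiling, panel entry STK6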
[10] = target: Serine/threonine-protein kinase Nek2 (Homo sapiens, UniProt P51955); assay type: functional
[11] = target: Proto-oncogene tyrosine-protein kinase receptor Ret (Homo sapiens, UniProt P07949); assay type: functional;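 note: measured within a kinome-wide profiling panel, RET as the panel member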
Aurora kinase B = Aurora kinase B (Homo sapiens, UniProt Q96GD4); assay type: functional
[12] = target: Macrophage colony-stimulating factor 1 receptor (Homo sapiens, UniProt P07333); assay type: functional;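 note: value comes from the Navigating the Kinome screening panel, CSF1R member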
[13] = target: Tyrosine-protein kinase receptor TYRO3 (Homo sapiens, UniProt Q06418); assay type: functional;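 note: TYRO3 value obtained as one member of a kinome-wide profiling panel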
[14] = target: Serine/threonine-protein kinase D3 (Homo sapiens, UniProt O94806); assay type: functional;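 note: determined within a kinase panel screen, with PRKCN as the panel member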
[15] = target: Rho-associated protein kinase 1 (Homo sapiens, UniProt Q13464); assay type: functional;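 note: measured within a broad kinome-wide panel profiling many kinases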
[16] = target: Glycogen synthase kinase-3 beta (Homo sapiens, UniProt P49841); assay type: functional;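 note: value comes from a broad kinome profiling panel, with GSK3B as the panel member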
[17] = target: Calcium/calmodulin-dependent protein kinase type II subunit alpha (Homo sapiens, UniProt Q9UQM7); assay: Navigating the Kinome. Panel member name: CAMK2A; assay type: functional
Activated CDC42 kinase 1 = Activated CDC42 kinase 1 (Homo sapiens, UniProt Q07912); assay: Navigating the Kinome. Panel member name: ACK1; assay type: functional
[18] = target: Macrophage-stimulating protein receptor (Homo sapiens, UniProt Q04912); assay: Navigating the Kinome. Panel member name: MST1R; assay type: functional
[19] = target: 5'-AMP-activated protein kinase catalytic subunit alpha-1 (Homo sapiens, UniProt Q13131); assay type: functional
[20] = target: Glycogen synthase kinase-3 alpha (Homo sapiens, UniProt P49840); assay type: functional;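 note: GSK3A result taken from a broad kinome-wide kinase panel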
[21] = target: Serine/threonine-protein kinase Chk1 (Homo sapiens, UniProt O14757); assay type: functional;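 note: measured as one member of a kinome-wide kinase profiling panel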
[22] = target: Cyclin-dependent kinase 9 (Homo sapiens, UniProt P50750); assay type: functional;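 note: value from the CDK9 entry of a kinome-spanning kinase panel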
[23] = target: Dual specificity tyrosine-phosphorylation-regulated kinase 1A (Homo sapiens, UniProt Q13627); assay type: functional;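 note: measured against DYRK1A as one member of a broad kinome profiling panel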

Macrophage-stimulating protein receptor, sequence (Q04912 25-304 limits assumed): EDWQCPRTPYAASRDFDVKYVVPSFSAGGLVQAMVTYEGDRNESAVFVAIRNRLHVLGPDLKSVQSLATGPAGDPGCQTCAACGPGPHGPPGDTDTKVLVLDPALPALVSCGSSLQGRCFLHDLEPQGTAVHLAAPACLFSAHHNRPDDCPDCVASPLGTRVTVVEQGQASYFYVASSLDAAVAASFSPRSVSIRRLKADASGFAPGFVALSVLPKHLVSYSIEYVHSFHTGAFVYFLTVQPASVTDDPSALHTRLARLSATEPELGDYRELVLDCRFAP
Macrophage-stimulating protein receptor, sequence (Q04912 310-1400 limits assumed): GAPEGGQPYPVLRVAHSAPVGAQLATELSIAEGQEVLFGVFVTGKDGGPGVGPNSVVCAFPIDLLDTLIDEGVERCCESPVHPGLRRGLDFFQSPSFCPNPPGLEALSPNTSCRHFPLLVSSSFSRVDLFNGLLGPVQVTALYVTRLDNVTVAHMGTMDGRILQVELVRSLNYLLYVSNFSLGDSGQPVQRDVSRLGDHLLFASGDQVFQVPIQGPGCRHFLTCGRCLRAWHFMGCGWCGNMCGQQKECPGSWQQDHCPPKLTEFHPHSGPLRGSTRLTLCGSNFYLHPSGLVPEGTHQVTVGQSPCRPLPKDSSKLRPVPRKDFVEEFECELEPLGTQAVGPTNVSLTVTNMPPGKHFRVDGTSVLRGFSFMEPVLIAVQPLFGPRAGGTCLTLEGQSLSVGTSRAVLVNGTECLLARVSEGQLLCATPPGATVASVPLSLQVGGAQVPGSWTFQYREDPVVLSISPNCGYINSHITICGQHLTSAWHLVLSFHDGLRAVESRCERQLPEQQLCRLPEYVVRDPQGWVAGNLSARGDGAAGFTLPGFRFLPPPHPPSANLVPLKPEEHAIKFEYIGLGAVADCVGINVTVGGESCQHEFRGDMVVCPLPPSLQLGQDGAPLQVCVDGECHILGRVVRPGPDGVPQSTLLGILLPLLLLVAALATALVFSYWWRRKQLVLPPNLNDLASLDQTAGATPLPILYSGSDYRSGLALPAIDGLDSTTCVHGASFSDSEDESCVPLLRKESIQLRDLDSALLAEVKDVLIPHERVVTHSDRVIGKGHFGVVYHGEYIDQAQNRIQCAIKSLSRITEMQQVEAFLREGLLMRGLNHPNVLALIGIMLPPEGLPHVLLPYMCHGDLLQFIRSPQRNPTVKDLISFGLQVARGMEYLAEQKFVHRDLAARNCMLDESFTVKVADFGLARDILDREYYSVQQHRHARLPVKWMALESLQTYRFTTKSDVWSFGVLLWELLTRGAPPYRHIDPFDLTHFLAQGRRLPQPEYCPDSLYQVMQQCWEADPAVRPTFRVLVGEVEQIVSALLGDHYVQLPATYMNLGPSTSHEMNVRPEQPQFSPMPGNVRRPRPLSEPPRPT
Cyclin-dependent kinase 7, sequence (P50613 whole entry): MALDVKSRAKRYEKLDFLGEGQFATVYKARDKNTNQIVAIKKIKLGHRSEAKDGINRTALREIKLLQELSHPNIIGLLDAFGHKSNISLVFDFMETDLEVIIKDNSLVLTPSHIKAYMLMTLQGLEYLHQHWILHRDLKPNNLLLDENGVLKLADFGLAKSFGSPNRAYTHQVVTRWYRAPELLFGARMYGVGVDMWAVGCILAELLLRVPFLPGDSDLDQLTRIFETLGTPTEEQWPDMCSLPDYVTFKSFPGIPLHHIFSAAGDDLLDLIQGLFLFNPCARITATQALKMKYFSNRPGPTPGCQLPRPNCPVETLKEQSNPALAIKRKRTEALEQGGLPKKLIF
Proto-oncogene tyrosine-protein kinase receptor Ret, sequence (P07949 whole entry): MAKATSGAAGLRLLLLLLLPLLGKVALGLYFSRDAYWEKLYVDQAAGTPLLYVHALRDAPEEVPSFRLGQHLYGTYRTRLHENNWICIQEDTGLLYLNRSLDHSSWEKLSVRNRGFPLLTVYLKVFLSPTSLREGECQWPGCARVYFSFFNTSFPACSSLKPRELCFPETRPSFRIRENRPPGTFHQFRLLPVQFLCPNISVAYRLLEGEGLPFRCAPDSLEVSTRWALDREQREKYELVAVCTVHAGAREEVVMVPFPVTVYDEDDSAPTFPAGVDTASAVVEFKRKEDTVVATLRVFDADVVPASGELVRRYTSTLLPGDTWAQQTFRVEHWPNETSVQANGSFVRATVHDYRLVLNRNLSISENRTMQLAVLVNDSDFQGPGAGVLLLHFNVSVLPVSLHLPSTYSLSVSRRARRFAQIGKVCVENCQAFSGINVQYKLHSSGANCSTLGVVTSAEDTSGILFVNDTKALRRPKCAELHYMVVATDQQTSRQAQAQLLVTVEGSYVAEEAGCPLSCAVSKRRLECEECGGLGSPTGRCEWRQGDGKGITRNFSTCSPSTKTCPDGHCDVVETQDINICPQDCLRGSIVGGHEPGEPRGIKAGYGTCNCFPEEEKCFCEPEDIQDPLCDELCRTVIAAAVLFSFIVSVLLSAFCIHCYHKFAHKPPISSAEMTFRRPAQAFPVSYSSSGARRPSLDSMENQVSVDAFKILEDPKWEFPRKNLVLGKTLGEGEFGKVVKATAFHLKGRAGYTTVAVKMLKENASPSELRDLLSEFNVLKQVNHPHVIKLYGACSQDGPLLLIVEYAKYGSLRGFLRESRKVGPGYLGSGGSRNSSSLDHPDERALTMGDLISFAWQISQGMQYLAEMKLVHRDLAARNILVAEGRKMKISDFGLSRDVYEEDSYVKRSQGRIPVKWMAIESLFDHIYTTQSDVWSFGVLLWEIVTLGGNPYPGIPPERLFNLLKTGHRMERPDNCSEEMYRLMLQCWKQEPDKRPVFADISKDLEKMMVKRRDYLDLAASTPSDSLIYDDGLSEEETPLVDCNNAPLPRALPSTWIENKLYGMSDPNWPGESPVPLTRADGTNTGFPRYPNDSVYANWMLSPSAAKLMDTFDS
Serine/threonine-protein kinase D3, sequence (O94806 whole entry): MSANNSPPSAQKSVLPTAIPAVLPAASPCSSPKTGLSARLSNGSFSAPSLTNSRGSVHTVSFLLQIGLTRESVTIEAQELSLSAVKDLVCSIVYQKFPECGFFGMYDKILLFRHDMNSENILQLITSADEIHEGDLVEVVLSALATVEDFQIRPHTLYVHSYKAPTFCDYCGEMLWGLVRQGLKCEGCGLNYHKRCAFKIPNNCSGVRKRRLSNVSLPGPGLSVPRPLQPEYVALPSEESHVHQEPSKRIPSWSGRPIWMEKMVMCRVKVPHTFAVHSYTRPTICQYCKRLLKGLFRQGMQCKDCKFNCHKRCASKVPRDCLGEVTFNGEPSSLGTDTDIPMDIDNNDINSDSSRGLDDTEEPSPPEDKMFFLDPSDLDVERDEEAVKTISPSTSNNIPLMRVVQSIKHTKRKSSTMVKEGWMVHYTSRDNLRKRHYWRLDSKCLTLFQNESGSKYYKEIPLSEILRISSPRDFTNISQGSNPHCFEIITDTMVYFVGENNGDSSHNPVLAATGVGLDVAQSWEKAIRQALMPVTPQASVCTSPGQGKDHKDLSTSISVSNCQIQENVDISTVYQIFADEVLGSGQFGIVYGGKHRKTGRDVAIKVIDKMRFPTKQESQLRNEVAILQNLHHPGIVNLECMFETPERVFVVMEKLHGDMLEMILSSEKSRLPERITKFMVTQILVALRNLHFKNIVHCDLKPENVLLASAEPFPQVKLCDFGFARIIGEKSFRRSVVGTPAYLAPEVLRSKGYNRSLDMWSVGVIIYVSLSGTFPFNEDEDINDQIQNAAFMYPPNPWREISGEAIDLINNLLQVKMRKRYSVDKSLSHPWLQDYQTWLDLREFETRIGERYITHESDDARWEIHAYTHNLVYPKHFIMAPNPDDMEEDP
Serine/threonine-protein kinase Chk1, sequence (O14757 whole entry): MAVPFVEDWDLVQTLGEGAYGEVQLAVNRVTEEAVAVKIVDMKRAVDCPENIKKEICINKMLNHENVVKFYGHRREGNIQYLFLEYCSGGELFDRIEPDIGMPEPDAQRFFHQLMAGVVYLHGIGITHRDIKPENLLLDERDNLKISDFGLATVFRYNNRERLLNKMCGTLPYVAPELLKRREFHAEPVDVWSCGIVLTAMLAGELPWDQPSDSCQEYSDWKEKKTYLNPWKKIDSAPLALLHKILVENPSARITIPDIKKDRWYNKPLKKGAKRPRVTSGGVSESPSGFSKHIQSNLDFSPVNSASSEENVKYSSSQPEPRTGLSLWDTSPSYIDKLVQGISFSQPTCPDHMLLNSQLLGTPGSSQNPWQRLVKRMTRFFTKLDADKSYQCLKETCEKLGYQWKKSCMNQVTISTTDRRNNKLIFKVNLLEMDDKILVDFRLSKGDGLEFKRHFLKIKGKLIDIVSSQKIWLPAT
Serine/threonine-protein kinase PAK 4, sequence (O96013 whole entry): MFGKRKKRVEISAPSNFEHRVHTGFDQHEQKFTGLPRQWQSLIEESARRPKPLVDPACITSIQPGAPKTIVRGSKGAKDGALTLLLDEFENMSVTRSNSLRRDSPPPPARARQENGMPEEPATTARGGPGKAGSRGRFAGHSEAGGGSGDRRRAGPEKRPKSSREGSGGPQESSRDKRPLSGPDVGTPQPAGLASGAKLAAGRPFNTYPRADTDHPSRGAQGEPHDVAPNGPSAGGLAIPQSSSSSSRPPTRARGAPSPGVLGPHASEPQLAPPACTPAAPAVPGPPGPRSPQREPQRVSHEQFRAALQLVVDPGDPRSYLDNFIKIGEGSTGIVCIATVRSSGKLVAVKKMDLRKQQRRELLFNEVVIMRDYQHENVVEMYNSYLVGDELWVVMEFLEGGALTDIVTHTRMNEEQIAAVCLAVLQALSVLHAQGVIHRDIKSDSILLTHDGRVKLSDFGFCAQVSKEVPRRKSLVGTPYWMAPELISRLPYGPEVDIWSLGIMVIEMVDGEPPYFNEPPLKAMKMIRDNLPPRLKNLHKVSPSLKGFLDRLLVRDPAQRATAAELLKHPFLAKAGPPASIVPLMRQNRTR

O=S(=O)(O)c1cccc2c(N=Nc3ccc(O)c4ncccc34)cccc12
active: AC50 (HeLa) 206000 nM | IC50 (Genome polyprotein) 34800 nM
inactive: EC50 [1] > 160000 nM | IC50 (HEK293) > 89300 nM
> 38000 nM (not active): EC50 [2]

O=C(NNc1cc(N2CCCC2)nc(N2CCCC2)n1)c1ccc([N+](=O)[O-])cc1
inactive: IC50 (Caspase-3) > 100000 nM

O=C(Cc1cccs1)Nc1nc2ccccc2s1
inactive: Ki [3] > 2510 nM | Ki [9] > 5010 nM | Ki [12] > 2510 nM | Ki (Activated CDC42 kinase 1) > 3980 nM | Ki [20] > 3980 nM
active: Ki (LIM domain kinase 1) 158 nM | Ki [4] 631 nM | Ki [5] 1000 nM | Ki [6] 2510 nM | Ki [7] 398 nM | Ki [8] 3160 nM | Ki (Aurora kinase A) 398 nM | Ki [10] 1000 nM | Ki [11] 3160 nM | Ki (Aurora kinase B) 1000 nM | Ki [13] 398 nM | Ki [14] 3160 nM | Ki [15] 3160 nM | Ki [16] 501 nM | Ki [17] 3160 nM | Ki [18] 2000 nM | Ki [19] 1580 nM | Ki [21] 316 nM | Ki [22] 251 nM | Ki [23] 501 nM
